By EC50 is commonly meant the concentration giving half of the maximal effect.

Holding throughout (assay type): cell-based
Test [1] deals with K562. As to the kind of experiment: Cytostatic/cytotoxic MTT assay, K562. Conditions: Homo sapiens, K562; 72 h incubation; read-out: MTT, IC50 K562. The text has this: (§1) Unless otherwise stated, all cells were purchased from the […] (ATCC). The CCRF-CEM line is derived from T lymphoblastic leukemia, evincing high chemosenzitivity, K562 represent cells from a […] patient sample with bcr-abl translocation, HCT116 is colorectal tumor cell line and its p53 gene knock-down counterpart (HCT116p53−/−, Horizon Discovery, UK) is a model of human cancers with p53 inactivation frequently associated with poor prognosis, A549 cell line is lung adenocarcinoma. The daunorubicin resistant subline of CCRF-CEM cells (CEM-DNR bulk) and paclitaxel resistant subline K562-TAX were selected in our laboratory by cultivation of maternal cell lines in increasing concentrations of daunorubicine or paclitaxel, respectively. The CEM-DNR cells overexpress mrp-1 and mdr-1 genes, while K562-TAX cells overexpress mdr-1 only. Both proteins belong to the family of ABC transporters and are involved in the primary and/or acquired multidrug resistance phenomenon (ref.: Gottesman, M. M.; Fojo, T.; Bates, S. E. Multidrug resistance in cancer: role of ATP-dependent transporters. Nat. Rev. Cancer. 2002, 2, 48-58. (b) Noskova, V.; Dzubak, P.; Kuzmina, G.; Ludkova, A.; Stehlik, D.; Trojanec, R.; Janostakova, A.; Korinkova, G.; Mihal, V.; Hajduch, M. In vitro chemoresistance profile and expression/function of MDR associated proteins in resistant cell lines derived from CCRF-CEM, K562, A549 and MDA MB 231 parental cells. Neoplasma 2002, 49, 418-425). Non-malignant MRC-5 and BJ cells, derived from normal human fibroblasts, were used as controls. The cells were maintained in Nunc/Corning 80 cm^2 plastic tissue culture flasks and cultured in cell culture medium (DMEM/RPMI 1640 with 5 g/L glucose, 2 mM glutamine, 100 U/mL penicillin, 100 µg/mL streptomycin, 10% fetal calf serum, and NaHCO3). Cell suspensions were prepared and diluted according to the particular cell type and the expected target cell density (25,000-30,000 cells/well based on cell growth characteristics). Cells were added by pipette (80 L) into 96-well microtiter plates. Inoculates were allowed a pre-incubation period of 24 h at 37° C. and 5% CO2 for stabilization. Four-fold dilutions, in 20-L aliquots, of the intended test concentration were added to the microtiter plate walls at time zero. All test compound concentrations were examined in duplicate. Incubation of the cells with the test compounds lasted for 72 h at 37° C., in a 5% CO2 atmosphere at 100% humidity. At the end of the incubation period, the cells were assayed using MTT. Aliquots (10 L) of the MTT stock solution (5 mg/ml) were pipetted into each well and incubated for another 1-4 h. After this incubation period the formazan produced was dissolved by addition of 100 µL/well of 10% aq SDS (pH 5.5), followed by a further incubation at 37° C. overnight. The optical density was measured at 540 nm. The IC50 value, the drug concentration inhibiting the cell growth by 50%, was calculated from appropriate dose-response curves.
(§2) In vitro cytotoxic/cytostatic activity final nucleosides 1-5 was initially evaluated against […] cell lines derived from human solid tumors including lung (A549 cells) and colon (HCT116 and HCT116p53−/−) carcinomas, as well as leukemia cell lines (CCRF-CEM, CEM-DNR, K562 and K562-TAX) and, for comparison, non-malignant BJ and MRC-5 fibroblasts. Concentrations inhibiting the cell growth by 50% (IC50) were determined using a quantitative metabolic staining with 3-(4,5-dimethylthiazol-2-yl)-2,5-diphenyltetrazolium bromide (MTT) (ref.: Denizot, F.; Lang, R. Rapid colorimetric assay for cell growth and survival: Modifications to the tetrazolium dye procedure giving improved sensitivity and reliability. J. Immunol. Meth. 1986, 89, 271-277) following a 3-day treatment.
(In general: Tetrazolium dyes change colour on reduction, which living cells bring about.)

Test [2] relates to HCT116p53-/-. The test is described as follows: Cytostatic/cytotoxic MTT assay, HCT116p53-/-. Conditions: Homo sapiens, HCT-116; 72 h incubation; read-out: MTT, IC50 HCT116 p53-/-.
Excerpt: as §1, §2
Multidrug resistance is a major therapeutic problem in cancer chemotherapy. […]

For test [3], the system named is HCV subtype 2A replicon in Huh-7 cells. As to the kind of experiment: HCV sub-genomic reporter replicon assay, subtype 2A. Conditions: Hepatitis C virus; Huh-7 cells, HCV subtype 2A replicon; read-out: Replicon 2A EC50. The protocol:
Compounds were also tested in Huh-7 cells harboring sub-genomic reporter replicons derived from HCV subtypes 1B and 2A (ref.: Stuyver, L. J.; Whitaker, T.; McBrayer, T. R.; Hernandez-Santiago, B. I.; Lostia, S.; Tharnish, P. M.; Ramesh, M.; Chu, C. K.; Jordan, R.; Shi, J. X.; Rachakonda, S.; Watanabe, K. A.; Otto, M. J.; Schinazi, R. F. Antimicrob. Agents Chemother. 2003, 47, 244-254).
Background: Replicon systems follow genome replication, usually without infectious particles.

In test [4] the test system is CCRF-CEM. The test is described as follows: Cytostatic/cytotoxic MTT assay, CCRF-CEM. Conditions: Homo sapiens, 72 h incubation, read-out: MTT, IC50 CCRF-CEM.
Excerpt: as §1, §2

Test [5] relates to HeLa S3. As to the kind of experiment: XTT cytotoxicity assay, HeLa S3. Conditions: Homo sapiens, HeLa S3; 72 h incubation; read-out: XTT, IC50 HeLa S3. As for the experimental part: HL-60, Hela S3 and HepG2 cell lines (ATCC) were grown in RPMI-1640 or DMEM medium supplemented with 10% fetal calf serum, […] of streptomycin, 200 U/mL of penicillin G and 4 mM glutamine in a humidified atmosphere containing 5% CO2 at 37° C. Sensitivity of these cell lines to the synthesized compounds was assessed with the use of XTT cell proliferation kit II (Roche Diagnostics GmbH, Mannheim, Germany) according to the manufacturer's instructions. Briefly, cells were seeded in a 96-well plate at a density of 10,000 cells per well (90 μL). After 24 h, 10 μL of the tested compounds were added to the culture media at desired concentration range and incubated for 72 h. After that 50 μL of the XTT solution was added (1 mg/mL XTT+0.383 mg/mL N-methyl dibenzopyrazine methyl sulfate). The absorbance was recorded at 495 nm following a 2 h-incubation with the dye. IC50 values were determined by non-linear regression method using GraphPad Prism version 5.00 for Windows (GraphPad Software, La Jolla, Calif., USA).
In addition, the anti-proliferative effect was tested against a human T-lymphoblastic leukemia line CCRF-CEM, promyelocytic leukemia HL-60 and cervical carcinoma HeLa S3 growing in liquid suspension. Cell viability was determined following a 3-day incubation using 2,3-bis-(2-methoxy-4-nitro-5-sulfophenyl)-2H-tetrazolium-5-carboxanilide (XTT) assay (ref.: Scudiero, D. A.; Shoemaker, R. H.; Paull, K. D.; Monks, A.; Tierney, S.; Nofziger, T. H.; Currens, M. J.; Seniff, D.; Boyd M. R. Evaluation of a Soluble Tetrazolium/Formazan Assay for Cell Growth and Drug Sensitivity in Culture Using Human and Other Tumor Cell Lines. Cancer Res. 1988, 48, 4827-4833).

Test [6] has as its system BJ. As to the kind of experiment: Cytostatic/cytotoxic MTT assay, BJ fibroblasts. Conditions: Homo sapiens, non-malignant fibroblasts, 72 h, read-out: MTT, IC50 BJ.
Excerpt: as §1, §2

As for `COc1ncnc2c1c(-c1ccco1)cn2[C@@H]1O[C@H](CO)[C@@H](O)[C@H]1O` [Compound 1a, 5-(Furan-2-yl)-4-methoxy-7-(β-D-ribofuranosyl)-7H-pyrrolo[2,3-d]pyrimidine], the IC50 is 0.06 µM in test [1]; 0.04 µM in test [2]; 0.02 µM in test [4]; 1.02 µM in test [5]; 0.43 µM in test [6]. In addition, in test [3], the EC50 stood at 0.03 µM.
Consider `COc1ncnc2c1c(-c1ccoc1)cn2[C@@H]1O[C@H](CO)[C@@H](O)[C@H]1O` [Compound 1b, 5-(Furan-3-yl)-4-methoxy-7-(β-D-ribofuranosyl)-7H-pyrrolo[2,3-d]pyrimidine], for which the IC50 stood at 0.19 µM in test [1]; 0.13 µM in test [2]; 0.11 µM in test [4]; 1.79 µM in test [5]; 28.8 µM in test [6]. In addition, the concentration for a half-maximal effect (EC50) in test [3] turned out to be 8.28 µM.
For the compound `COc1ncnc2c1c(-c1cccs1)cn2[C@@H]1O[C@H](CO)[C@@H](O)[C@H]1O` [Compound 1c, 4-Methoxy-7-(β-D-ribofuranosyl)-5-(thiophen-2-yl)-7H-pyrrolo[2,3-d]pyrimidine], the IC50 was found to be 0.07 µM in test [1]; 0.44 µM in test [2]; 0.09 µM in test [4]; 1.76 µM in test [5]; 62.8 µM in test [6]. Further, the EC50 in test [3] was greater than 44 µM.
On to `COc1ncnc2c1c(-c1ccsc1)cn2[C@@H]1O[C@H](CO)[C@@H](O)[C@H]1O` [Compound 1d, 4-Methoxy-7-(β-D-ribofuranosyl)-5-(thiophen-3-yl)-7H-pyrrolo[2,3-d]pyrimidine], for which the IC50 was 0.09 µM in test [1]; 0.14 µM in test [2]; 2.57 µM in test [4]; 3.35 µM in test [5]; 64.3 µM in test [6]. Moreover, in test [3], the EC50 is greater than 44 µM.
As to `COc1ncnc2c1c(-c1ccccc1)cn2[C@@H]1O[C@H](CO)[C@@H](O)[C@H]1O` [Compound 1e, 4-Methoxy-5-phenyl-7-(β-D-ribofuranosyl)-7H-pyrrolo[2,3-d]pyrimidine], the IC50 in test [1] is greater than 20 µM; in test [2] it was greater than 20 µM; in test [4] it was greater than 20 µM; in test [5], greater than 20 µM; in test [6] it was greater than 100 µM. In addition, the half-maximal effective concentration (EC50) in test [3] was greater than 44 µM.
For the compound `COc1ncnc2c1c(-c1cc3ccccc3o1)cn2[C@@H]1O[C@H](CO)[C@@H](O)[C@H]1O` [Compound 1f, 5-(Benzofuran-2-yl)-4-methoxy-7-(β-D-ribofuranosyl)-7H-pyrrolo[2,3-d]pyrimidine], the IC50 came out at 20.9 µM in test [1]; 14.5 µM in test [2]; 5.37 µM in test [4]; 9.24 µM in test [5]; 22.4 µM in test [6]. Also, in test [3], the EC50 came to 10.2 µM.
On to `C#Cc1cn([C@@H]2O[C@H](CO)[C@@H](O)[C@H]2O)c2ncnc(OC)c12` [Compound 1g, 5-Ethynyl-4-methoxy-7-(β-D-ribofuranosyl)-7H-pyrrolo[2,3-d]pyrimidine], for which the IC50 is 0.3 µM in test [1]; 5.14 µM in test [2]; greater than 20 µM in test [4]; 1.73 µM in test [5]; 98.4 µM in test [6]. In test [3], the half-maximal effective concentration (EC50) was greater than 44 µM.
Take `COc1ncnc2c1c(I)cn2[C@@H]1O[C@H](CO)[C@@H](O)[C@H]1O` [Compound 1h, 5-iodo-4-methoxy-7-(β-D-ribofuranosyl)-7H-pyrrolo[2,3-d]pyrimidine, reference compound]: the IC50 in test [1] is greater than 20 µM; in test [2], greater than 20 µM; in test [4], 1.15 µM; in test [5] it was 14.3 µM; in test [6] it was 91 µM. In addition, in test [3], the concentration giving a half-maximal response (EC50) is greater than 44 µM.
Turning to `CSc1ncnc2c1c(-c1ccco1)cn2[C@@H]1O[C@H](CO)[C@@H](O)[C@H]1O` [Compound 2a, 5-(Furan-2-yl)-4-methylsulfanyl-7-(β-D-ribofuranosyl)-7H-pyrrolo[2,3-d]pyrimidine], the IC50 in test [1] worked out at 0.04 µM; in test [2], 0.01 µM; in test [4], 0.05 µM; in test [5] it was 0.54 µM; in test [6], 0.26 µM. Besides, in test [3], the EC50 was 0.05 µM.
For `CSc1ncnc2c1c(-c1ccoc1)cn2[C@@H]1O[C@H](CO)[C@@H](O)[C@H]1O` [Compound 2b, 5-(Furan-3-yl)-4-methylsulfanyl-7-(β-D-ribofuranosyl)-7H-pyrrolo[2,3-d]pyrimidine], the IC50 in test [1] amounted to 0.06 µM; in test [2], 0.1 µM; in test [4], 14.2 µM; in test [5], 5.39 µM; in test [6] it was 98.8 µM. Also, the concentration giving a half-maximal response (EC50) in test [3] was greater than 44 µM.
For `CSc1ncnc2c1c(-c1cccs1)cn2[C@@H]1O[C@H](CO)[C@@H](O)[C@H]1O` [Compound 2c, 4-Methylsulfanyl-7-(β-D-ribofuranosyl)-5-(thiophen-2-yl)-7H-pyrrolo[2,3-d]pyrimidine], the IC50 in test [1] is 11.6 µM; in test [2], greater than 20 µM; in test [4], greater than 20 µM; in test [5], 1.96 µM; in test [6] it was 96.9 µM. Besides, the half-maximal effective concentration (EC50) in test [3] was greater than 44 µM.
Turning to `CSc1ncnc2c1c(-c1ccsc1)cn2[C@@H]1O[C@H](CO)[C@@H](O)[C@H]1O` [Compound 2d, 4-Methylsulfanyl-7-(β-D-ribofuranosyl)-5-(thiophen-3-yl)-7H-pyrrolo[2,3-d]pyrimidine], the IC50 is 0.45 µM in test [1]; greater than 20 µM in test [2]; greater than 20 µM in test [4]; greater than 20 µM in test [5]; 95.8 µM in test [6]. Also, in test [3], the 50% effective concentration (EC50) was greater than 44 µM.

The values above are taken from patent publication US9586986B2, “Substituted 7-deazapurine ribonucleosides for therapeutic uses” (Institute of Organic Chemistry and Biochemistry ASCR, v.v.i., priority 2014, dated 2017).
